The compounds below were run against T1, full-length ATR (Homo sapiens, UniProt Q13535) (assay: ATR Inhibition Assay (radioactive-phosphate incorporation)). Settings: Ki(app); 5 nM full-length ATR, 10 μM [γ-33P]ATP, 800 μM target peptide, 25° C.
T1 construct: Assays were carried out at 25° C. in the presence of 5 nM full-length ATR
Type: biochemical
Procedure: Compounds were screened for their ability to inhibit ATR kinase using a radioactive-phosphate incorporation assay. Assays were carried out in a mixture of 50 mM Tris/HCl (pH 7.5), 10 mM MgCl2 and 1 mM DTT. Final substrate concentrations were 10 μM [γ-33P]ATP (3mCi 33P ATP/mmol ATP, Perkin Elmer) and 800 μM target peptide (ASELPASQPQPFSAKKK).
Assays were carried out at 25° C. in the presence of 5 nM full-length ATR. An assay stock buffer solution was prepared containing all of the reagents listed above, with the exception of ATP and the test compound of interest. 13.5 μL of the stock solution was placed in a 96 well plate followed by addition of 2 μL of DMSO stock containing serial dilutions of the test compound (typically starting from a final concentration of 15 μM with 3-fold serial dilutions) in duplicate (final DMSO concentration 7%). The plate was pre-incubated for 10 minutes at 25° C. and the reaction initiated by addition of 15 μL [γ-33P]ATP (final concentration 10 μM).
The reaction was stopped after […] by the addition of 30 μL 0.1M phosphoric acid containing 2 mM ATP. A multiscreen phosphocellulose filter 96-well plate (Millipore, Cat no. MAPHN0B50) was pretreated with 100 μL 0.2M phosphoric acid prior to the addition of 45 μL of the stopped assay mixture. The plate was washed with 5×200 μL 0.2M phosphoric acid. After drying, 100 μL Optiphase ‘SuperMix’ liquid scintillation cocktail (Perkin Elmer) was added to the well prior to scintillation counting (1450 Microbeta Liquid Scintillation Counter, Wallac).
After removing mean background values for all of the data points, Ki(app) data were calculated from non-linear regression analysis of the initial rate data using the Prism software package (GraphPad Prism version 3.0cx for Macintosh, GraphPad Software, San Diego Calif., USA).

T1 sequence (Q13535 whole entry): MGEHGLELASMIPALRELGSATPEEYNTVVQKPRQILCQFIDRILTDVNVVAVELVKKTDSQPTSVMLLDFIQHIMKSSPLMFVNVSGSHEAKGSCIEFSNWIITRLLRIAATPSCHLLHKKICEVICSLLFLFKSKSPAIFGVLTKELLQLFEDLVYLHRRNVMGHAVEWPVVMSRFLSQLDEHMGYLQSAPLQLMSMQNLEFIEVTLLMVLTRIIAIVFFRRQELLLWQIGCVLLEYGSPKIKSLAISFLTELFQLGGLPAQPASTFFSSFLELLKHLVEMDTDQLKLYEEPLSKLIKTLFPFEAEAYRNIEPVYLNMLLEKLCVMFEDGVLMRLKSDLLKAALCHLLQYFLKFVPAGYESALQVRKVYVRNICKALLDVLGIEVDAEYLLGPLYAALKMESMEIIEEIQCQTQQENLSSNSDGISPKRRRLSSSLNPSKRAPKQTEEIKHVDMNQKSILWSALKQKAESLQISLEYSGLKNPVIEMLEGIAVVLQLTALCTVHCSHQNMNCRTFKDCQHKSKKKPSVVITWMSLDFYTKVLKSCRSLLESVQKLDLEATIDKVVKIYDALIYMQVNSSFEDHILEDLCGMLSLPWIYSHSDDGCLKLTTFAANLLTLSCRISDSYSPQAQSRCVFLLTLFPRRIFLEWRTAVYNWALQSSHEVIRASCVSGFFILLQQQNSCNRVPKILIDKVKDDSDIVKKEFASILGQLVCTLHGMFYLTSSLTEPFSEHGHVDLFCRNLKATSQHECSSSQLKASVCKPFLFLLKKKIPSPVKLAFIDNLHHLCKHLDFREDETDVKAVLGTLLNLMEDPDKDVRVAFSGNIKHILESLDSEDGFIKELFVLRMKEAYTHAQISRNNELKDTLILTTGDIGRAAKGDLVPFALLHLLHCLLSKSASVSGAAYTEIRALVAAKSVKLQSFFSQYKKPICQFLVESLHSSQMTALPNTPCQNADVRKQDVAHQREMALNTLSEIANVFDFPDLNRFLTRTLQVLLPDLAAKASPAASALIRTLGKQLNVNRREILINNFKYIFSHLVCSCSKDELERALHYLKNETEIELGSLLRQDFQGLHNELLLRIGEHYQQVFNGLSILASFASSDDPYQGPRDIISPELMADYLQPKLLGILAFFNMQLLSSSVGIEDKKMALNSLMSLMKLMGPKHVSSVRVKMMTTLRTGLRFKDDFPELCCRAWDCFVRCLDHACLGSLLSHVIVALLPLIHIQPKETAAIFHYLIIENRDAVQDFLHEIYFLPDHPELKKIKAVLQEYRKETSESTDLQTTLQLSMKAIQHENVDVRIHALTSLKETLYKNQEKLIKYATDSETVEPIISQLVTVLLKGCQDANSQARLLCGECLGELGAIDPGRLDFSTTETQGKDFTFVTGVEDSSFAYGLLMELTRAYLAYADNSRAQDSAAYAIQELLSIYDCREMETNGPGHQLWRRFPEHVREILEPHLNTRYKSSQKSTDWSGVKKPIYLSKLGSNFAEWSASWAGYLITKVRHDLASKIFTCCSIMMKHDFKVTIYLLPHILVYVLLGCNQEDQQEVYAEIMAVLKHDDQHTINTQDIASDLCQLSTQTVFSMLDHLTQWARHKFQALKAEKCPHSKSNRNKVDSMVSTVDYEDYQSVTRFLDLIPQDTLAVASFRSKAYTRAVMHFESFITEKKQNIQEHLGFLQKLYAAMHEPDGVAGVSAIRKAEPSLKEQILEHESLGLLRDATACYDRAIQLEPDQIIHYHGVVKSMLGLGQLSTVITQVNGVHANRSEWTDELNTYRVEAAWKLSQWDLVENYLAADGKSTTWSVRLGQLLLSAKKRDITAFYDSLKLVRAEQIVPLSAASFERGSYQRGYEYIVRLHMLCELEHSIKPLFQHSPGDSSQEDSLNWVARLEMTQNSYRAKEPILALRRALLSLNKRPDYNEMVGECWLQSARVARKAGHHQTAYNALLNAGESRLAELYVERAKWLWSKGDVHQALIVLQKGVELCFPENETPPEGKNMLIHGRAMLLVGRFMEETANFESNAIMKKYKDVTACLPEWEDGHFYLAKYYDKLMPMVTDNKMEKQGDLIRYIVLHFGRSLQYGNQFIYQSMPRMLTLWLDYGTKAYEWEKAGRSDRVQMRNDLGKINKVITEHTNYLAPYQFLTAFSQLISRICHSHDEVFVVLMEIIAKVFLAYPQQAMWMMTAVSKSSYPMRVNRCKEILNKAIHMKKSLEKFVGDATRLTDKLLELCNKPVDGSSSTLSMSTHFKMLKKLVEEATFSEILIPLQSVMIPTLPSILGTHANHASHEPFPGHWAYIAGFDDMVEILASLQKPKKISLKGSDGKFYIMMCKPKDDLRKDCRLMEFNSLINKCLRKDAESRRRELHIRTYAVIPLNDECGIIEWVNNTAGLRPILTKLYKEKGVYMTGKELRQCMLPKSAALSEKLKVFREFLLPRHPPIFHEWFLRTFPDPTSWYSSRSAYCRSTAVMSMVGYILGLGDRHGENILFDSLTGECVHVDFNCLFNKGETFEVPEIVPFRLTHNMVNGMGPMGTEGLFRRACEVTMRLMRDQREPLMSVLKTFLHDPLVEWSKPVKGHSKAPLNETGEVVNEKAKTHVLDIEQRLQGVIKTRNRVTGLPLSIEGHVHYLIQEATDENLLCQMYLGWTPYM

Compound | Ki | ATR Inhibition Ki
CC(C)S(=O)(=O)c1ccc(-c2cnc3[nH]cc(NC(=O)c4ccccc4)c3n2)cc1 [Compound I-1, N-(2-(4-(isopropylsulfonyl)phenyl)-5H-pyrrolo[2,3-b]pyrazin-7-yl)benzamide] | ≤ 10 nM | 
CC(C)S(=O)(=O)c1ccc(-c2cnc3[nH]cc(NC(=O)c4cccc(N)c4)c3n2)cc1 [Compound I-2, 3-amino-N-[2-(4-isopropylsulfonylphenyl)-5H-pyrrolo[2,3-b]pyrazin-7-yl]benzamide] | ≤ 10 nM | 
CC(C)S(=O)(=O)c1ccc(-c2cnc3[nH]cc(NC(=O)c4ccc(N)cc4)c3n2)cc1 [Compound I-3, 4-amino-N-[2-(4-isopropylsulfonylphenyl)-5H-pyrrolo[2,3-b]pyrazin-7-yl]benzamide] | 10 to 100 nM | 
CC(C)S(=O)(=O)c1ccc(-c2cnc3[nH]cc(NC(=O)c4ccc(CN[C@H]5CCOC5)cc4)c3n2)cc1 [Compound I-5, N-[2-(4-isopropylsulfonylphenyl)-5H-pyrrolo[2,3-b]pyrazin-7-yl]-4-[[[(3S)-tetrahydrofuran-3-yl]amino]methyl]benzamide] | ≤ 10 nM | 
CNCc1cccc(C(=O)Nc2c[nH]c3ncc(-c4ccc(S(=O)(=O)C(C)C)cc4)nc23)c1 [Compound I-6, N-[2-(4-isopropylsulfonylphenyl)-5H-pyrrolo[2,3-b]pyrazin-7-yl]-3-(methylaminomethyl)benzamide] | ≤ 10 nM | 
COc1ccccc1C(=O)Nc1c[nH]c2ncc(-c3ccc(S(=O)(=O)C(C)C)cc3)nc12 [Compound I-11, N-[2-(4-isopropylsulfonylphenyl)-5H-pyrrolo[2,3-b]pyrazin-7-yl]-2-methoxy-benzamide] |  | none
CC(C)S(=O)(=O)c1ccc(-c2cnc3[nH]cc(NC(=O)c4cccc(Cl)c4)c3n2)cc1 [Compound I-13] | 10 to 100 nM | 
CC(C)S(=O)(=O)c1ccc(-c2cnc3[nH]cc(NC(=O)c4ccccc4O)c3n2)cc1 [Compound I-14, 2-hydroxy-N-(2-(4-(isopropylsulfonyl)phenyl)-5H-pyrrolo[2,3-b]pyrazin-7-yl)benzamide] | ≤ 10 nM | 
CC(C)S(=O)(=O)c1ccc(-c2cnc3[nH]cc(NC(=O)c4cccc(C5CNCCN5)c4)c3n2)cc1 (stereo not drawn) [Compound I-21, N-[2-(4-isopropylsulfonylphenyl)-5H-pyrrolo[2,3-b]pyrazin-7-yl]-3-piperazin-2-yl-benzamide] | 10 to 100 nM | 
CC(C)S(=O)(=O)c1ccc(-c2cnc3[nH]cc(NC(=O)c4ccc(N5CCC[C@@H](N)C5)cc4)c3n2)cc1 [Compound I-23, 4-[(3R)-3-amino-1-piperidyl]-N-[2-(4-isopropylsulfonylphenyl)-5H-pyrrolo[2,3-b]pyrazin-7-yl]benzamide] | ≤ 10 nM | 
CC(C)S(=O)(=O)c1ccc(-c2cnc3[nH]cc(NC(=O)c4ccc5c(c4)CNC5)c3n2)cc1 [Compound I-24, N-[2-(4-isopropylsulfonylphenyl)-5H-pyrrolo[2,3-b]pyrazin-7-yl]isoindoline-5-carboxamide] | ≤ 10 nM | 
CC(C)S(=O)(=O)c1ccc(-c2cnc3[nH]cc(NC(=O)c4cc5c(s4)CCNC5)c3n2)cc1 [Compound I-26, N-[2-(4-isopropylsulfonylphenyl)-5H-pyrrolo[2,3-b]pyrazin-7-yl]-4,5,6,7-tetrahydrothieno[3,2-c]pyridine-2-carboxamide] | ≤ 10 nM | 
CC(C)S(=O)(=O)c1ccc(-c2cnc3[nH]cc(NC(=O)c4cc5c(s4)CNCC5)c3n2)cc1 [Compound I-27, N-[2-(4-isopropylsulfonylphenyl)-5H-pyrrolo[2,3-b]pyrazin-7-yl]-4,5,6,7-tetrahydrothieno[2,3-c]pyridine-2-carboxamide] | ≤ 10 nM | 
CC(C)S(=O)(=O)c1ccc(-c2cnc3[nH]cc(NC(=O)c4ccc(C5CCCN5)cc4)c3n2)cc1 (stereo not drawn) [Compound I-28, N-[2-(4-isopropylsulfonylphenyl)-5H-pyrrolo[2,3-b]pyrazin-7-yl]-4-pyrrolidin-2-yl-benzamide] | ≤ 10 nM | 
CC(C)S(=O)(=O)c1ccc(-c2cnc3[nH]cc(NC(=O)c4ccc(OCCN(C)C)cc4)c3n2)cc1 [Compound I-29, 4-(2-dimethylaminoethyloxy)-N-[2-(4-isopropylsulfonylphenyl)-5H-pyrrolo[2,3-b]pyrazin-7-yl]benzamide] | ≤ 10 nM | 
Cc1ccsc1C(=O)Nc1c[nH]c2ncc(-c3ccc(S(=O)(=O)C(C)C)cc3)nc12 [Compound I-32, N-[2-(4-isopropylsulfonylphenyl)-5H-pyrrolo[2,3-b]pyrazin-7-yl]-3-methyl-thiophene-2-carboxamide] | ≤ 10 nM | 
CC(C)S(=O)(=O)c1ccc(-c2cnc3[nH]cc(NC(=O)CC4CC4)c3n2)cc1 [Compound I-33, 2-cyclopropyl-N-[2-(4-isopropylsulfonylphenyl)-5H-pyrrolo[2,3-b]pyrazin-7-yl]acetamide] | 10 to 100 nM | 

The next lines start with the values.

Ki | ATR Inhibition Ki | Compound
≤ 10 nM |  | CNCc1ccc(C(=O)Nc2c[nH]c3ncc(-c4ccc(S(=O)(=O)C(C)C)cc4)nc23)cc1 [Compound I-4, N-[2-(4-isopropylsulfonylphenyl)-5H-pyrrolo[2,3-b]pyrazin-7-yl]-4-(methylaminomethyl)benzamide]
100 to 500 nM |  | CC(C)S(=O)(=O)c1ccc(-c2cnc3[nH]cc(NC(=O)c4cccc(C(=O)O)c4)c3n2)cc1 [Compound I-7, 3-[[2-(4-isopropylsulfonylphenyl)-5H-pyrrolo[2,3-b]pyrazin-7-yl]carbamoyl]benzoic acid]
≤ 10 nM |  | CC(CCO)S(=O)(=O)c1ccc(-c2cnc3[nH]cc(NC(=O)c4ccccc4)c3n2)cc1 (stereo not drawn) [Compound I-8]
100 to 500 nM |  | CC(C)C(=O)Nc1c[nH]c2ncc(-c3ccc(S(=O)(=O)C(C)C)cc3)nc12 [Compound I-9, N-(2-(4-(isopropylsulfonyl)phenyl)-5H-pyrrolo[2,3-b]pyrazin-7-yl)isobutyramide]
100 to 500 nM |  | CC(C)S(=O)(=O)c1ccc(-c2cnc3[nH]cc(NC(=O)Cc4ccccc4)c3n2)cc1 [Compound I-10, N-[2-(4-isopropylsulfonylphenyl)-5H-pyrrolo[2,3-b]pyrazin-7-yl]-2-phenyl-acetamide]
10 to 100 nM |  | CC(C)S(=O)(=O)c1ccc(-c2cnc3[nH]cc(NC(=O)c4cccc(CN)c4)c3n2)cc1 [Compound I-12, 3-(aminomethyl)-N-[2-(4-isopropylsulfonylphenyl)-5H-pyrrolo[2,3-b]pyrazin-7-yl]benzamide]
10 to 100 nM |  | CC(C)S(=O)(=O)c1ccc(-c2cnc3[nH]cc(NC(=O)c4ccccc4F)c3n2)cc1 [Compound I-15, 2-fluoro-N-[2-(4-isopropylsulfonylphenyl)-5H-pyrrolo[2,3-b]pyrazin-7-yl]benzamide]
10 to 100 nM |  | CC(C)S(=O)(=O)c1ccc(-c2cnc3[nH]cc(NC(=O)c4ccc(Cl)cc4)c3n2)cc1 [Compound I-16, 4-chloro-N-[2-(4-isopropylsulfonylphenyl)-5H-pyrrolo[2,3-b]pyrazin-7-yl]benzamide]
10 to 100 nM |  | CC(C)S(=O)(=O)c1ccc(-c2cnc3[nH]cc(NC(=O)c4ccncc4)c3n2)cc1 [Compound I-17, N-[2-(4-isopropylsulfonylphenyl)-5H-pyrrolo[2,3-b]pyrazin-7-yl]pyridine-4-carboxamide]
≤ 10 nM |  | CC(C)S(=O)(=O)c1ccc(-c2cnc3[nH]cc(NC(=O)c4ccc(O)cc4)c3n2)cc1 [Compound I-18, 4-hydroxy-N-[2-(4-isopropylsulfonylphenyl)-5H-pyrrolo[2,3-b]pyrazin-7-yl]benzamide]
100 to 500 nM |  | CC(C)S(=O)(=O)c1ccc(-c2cnc3[nH]cc(NS(=O)(=O)c4ccccc4)c3n2)cc1 [Compound I-19]
10 to 100 nM |  | CC(C)S(=O)(=O)c1ccc(-c2cnc3[nH]cc(NC(=O)c4ccc(N5CCC(N)CC5)cc4)c3n2)cc1 [Compound I-20, 4-(4-amino-1-piperidyl)-N-[2-(4-isopropylsulfonylphenyl)-5H-pyrrolo[2,3-b]pyrazin-7-yl]benzamide]
≤ 10 nM |  | CC(C)S(=O)(=O)c1ccc(-c2cnc3[nH]cc(NC(=O)c4ccc(N5CC[C@H](N)C5)cc4)c3n2)cc1 [Compound I-22, 4-[(3S)-3-aminopyrrolidin-1-yl]-N-[2-(4-isopropylsulfonylphenyl)-5H-pyrrolo[2,3-b]pyrazin-7-yl]benzamide]
≤ 10 nM |  | CC(C)S(=O)(=O)c1ccc(-c2cnc3[nH]cc(NC(=O)c4ccc5c(c4)CNCC5)c3n2)cc1 [Compound I-25, N-[2-(4-isopropylsulfonylphenyl)-5H-pyrrolo[2,3-b]pyrazin-7-yl]-1,2,3,4-tetrahydroisoquinoline-7-carboxamide]
≤ 10 nM |  | CC(C)S(=O)(=O)c1ccc(-c2cnc3[nH]cc(NC(=O)c4ccc(NC5CNC5)cc4)c3n2)cc1 [Compound I-30, 4-(azetidin-3-ylamino)-N-[2-(4-isopropylsulfonylphenyl)-5H-pyrrolo[2,3-b]pyrazin-7-yl]benzamide]
10 to 100 nM |  | COc1cccc(C(=O)Nc2c[nH]c3ncc(-c4ccc(S(=O)(=O)C(C)C)cc4)nc23)n1 [Compound I-31, N-[2-(4-isopropylsulfonylphenyl)-5H-pyrrolo[2,3-b]pyrazin-7-yl]-6-methoxy-pyridine-2-carboxamide]
